In patent US4477465A, “Substituted 4,10-dihydro-10-oxothieno benzoxepins” (Hoechst-Roussel Pharmaceuticals Inc., priority 1983, dated 1984):
Where two headings read alike, the source gives them in different places.

How the values were obtained:
[1] = test system: carrageenin induced rat paw edema; assay: carrageenin induced rat paw edema antiinflammatory assay; format: in vivo; conditions: for Carrageenin Paw Edema %: dose 20 mg/kg (p.o.), rat
From the text: The compounds of the present invention are useful as antiinflammatory agents due to their ability to suppress inflammation in mammals. […] Exptl. Biol. Med., III 544 (1962), J. Pharmacol. Exp., 141 (1963)].

[2] = test system: 2-phenyl-1,4-benzoquinone-induced writhing; assay: 2-phenyl-1,4-benzoquinone-induced writhing test in mice (analgesia); format: in vivo; conditions: Mus musculus, po
[3] = mice, read-out: Phenylquinone Writhing ED50 Orally (p.o.)

| SMILES | Carrageenin Paw Edema % [1] | ED50 [2, 3] | ED50 ([2]; read-out: analgesic activity ED50) | inhibition of edema ([1]; dose 50 mg/kg (p.o.), in a similar test) |
| --- | --- | --- | --- | --- |
| CC1(C)COC(Cc2ccc3c(c2)C(=O)c2sccc2CO3)=N1 [2-(4,10-Dihydro-10-oxothieno[3,2-c][1]benzoxepin-8-yl)methyl-4,4-dimethyl-oxazoline] | 49% | 7.22 mg/kg | – | – |
| COC(=O)COC(=O)Cc1ccc2c(c1)C(=O)c1sccc1CO2 [Methyl (4,10-dihydro-10-oxothieno[3,2-c][1]benzoxepin-8-yl) acetoxyacetate] | 43% | 1.53 mg/kg | – | – |
| COc1ccc2c(c1)c(CC(=O)O)c(C)n2C(=O)c1ccc(Cl)cc1 [indomethacin, reference compound] | – | – | 0.7 mg/kg | – |
| CCCCC1C(=O)N(c2ccccc2)N(c2ccccc2)C1=O [phenylbutazone, reference compound] | – | – | – | 50% |
